According to US20090253618A1, “NEURONAL DIFFERENTIATION-INDUCING PEPTIDE AND USE THEREOF” (TOAGOSEI CO., LTD, priority 2005, published 2009):
Ends that are not written are not given here.

Key:
[1] = tested on: neural stem cells procured from mice; experiment: Neuronal differentiation-inducing activity in mouse neural stem cell culture (immune antibody procedure, MAPs and NeuN markers); assay type: cell-based; details: same tests as for samples 1 and 6 (10 ng/mL and 100 ng/mL, 24 hours), concentration of the result not stated
[2] = tested on: adipose stem cells procured from humans; experiment: Neuronal differentiation-inducing activity in human adipose stem cell culture (immune antibody procedure, MAPs and NeuN markers); assay type: cell-based; details: same tests as for samples 1 and 6 (10 ng/mL and 100 ng/mL, 24 hours), concentration of the result not stated

Substance	degree of neuronal differentiation [1]	degree of neuronal differentiation [2]
YARAAARQARA-ALFELCGRAV (YARAAARQARAALFELCGRAV) [sample 23, PTD4 plus 10 residues from the N terminal of the BC-box of MUF1]	significant neuronal differentiation	significant neuronal differentiation
YARAAARQARA-PLAHLCRLRVRKAIG (YARAAARQARAPLAHLCRLRVRKAIG) [sample 7]	significant neuronal differentiation	significant neuronal differentiation
YARAAARQARA-PLMDLCRRSVRLALG (YARAAARQARAPLMDLCRRSVRLALG) [sample 20]	significant neuronal differentiation	significant neuronal differentiation
YARAAARQARA-PLQELCRQRIVAAVG (YARAAARQARAPLQELCRQRIVAAVG) [sample 11]	significant neuronal differentiation	significant neuronal differentiation
YARAAARQARA-SLKHLCRKALRSFLT (YARAAARQARASLKHLCRKALRSFLT) [sample 5]	significant neuronal differentiation	significant neuronal differentiation
YARAAARQARA-SLQDLCCRAVVSCTP (YARAAARQARASLQDLCCRAVVSCTP) [sample 10]	significant neuronal differentiation	significant neuronal differentiation
YARAAARQARA-SLQFLALKALISERR (YARAAARQARASLQFLALKALISERR-NH2) [sample 21]	significant neuronal differentiation	significant neuronal differentiation
YARAAARQARA-SLQHICRMSI (YARAAARQARASLQHICRMSI) [sample 17, PTD4 plus 10 residues from the N terminal of the BC-box of mWSB-1]	significant neuronal differentiation	significant neuronal differentiation
YARAAARQARA-SLQHICRMSIRRVMS (YARAAARQARASLQHICRMSIRRVMS) [sample 2]	significant neuronal differentiation	significant neuronal differentiation
YARAAARQARA-SLQHICRTVICNCTT (YARAAARQARASLQHICRTVICNCTT) [sample 14]	significant neuronal differentiation	significant neuronal differentiation
YARAAARQARA-SLQHLCRFRIRQLVR (YARAAARQARASLQHLCRFRIRQLVR) [sample 4]	significant neuronal differentiation	significant neuronal differentiation
YARAAARQARA-SLQHLCRLVINRLVA (YARAAARQARASLQHLCRLVINRLVA) [sample 24]	significant neuronal differentiation	significant neuronal differentiation
YARAAARQARA-SLQYICRAVICRCTT (YARAAARQARASLQYICRAVICRCTT) [sample 9]	significant neuronal differentiation	significant neuronal differentiation
YARAAARQARA-SLQYLALKALVTPKK (YARAAARQARASLQYLALKALVTPKK-NH2) [sample 19]	significant neuronal differentiation	significant neuronal differentiation
YARAAARQARA-SLQYLCKFVI (YARAAARQARASLQYLCKFVI) [sample 22]	significant neuronal differentiation	significant neuronal differentiation
YARAAARQARA-SLQYLCRFVI (YARAAARQARASLQYLCRFVI) [sample 15, PTD4 plus 10 residues from the N terminal of the BC-box of hSOCS-6]	significant neuronal differentiation	significant neuronal differentiation
YARAAARQARA-SLQYLCRFVIRQYTK (YARAAARQARASLQYLCRFVIRQYTK) [sample 18]	significant neuronal differentiation	significant neuronal differentiation
YARAAARQARA-SLTHLCRLEIRSSIK (YARAAARQARASLTHLCRLEIRSSIK) [sample 8]	significant neuronal differentiation	significant neuronal differentiation
YARAAARQARA-TLLSLCRVAV (YARAAARQARATLLSLCRVAV) [sample 16, PTD4 plus 10 residues from the N terminal of the BC-box of mASB-1]	significant neuronal differentiation	significant neuronal differentiation
YARAAARQARA-TLLSLCRVAVRRALG (YARAAARQARATLLSLCRVAVRRALG) [sample 3]	significant neuronal differentiation	significant neuronal differentiation
YARAAARQARA-TLQHFCRLAINKCT (YARAAARQARATLQHFCRLAINKCT) [sample 12]	significant neuronal differentiation	significant neuronal differentiation
YARAAARQARA-TLQHLCRKTVNGHLD (YARAAARQARATLQHLCRKTVNGHLD) [sample 13]	significant neuronal differentiation	significant neuronal differentiation
